This is an account of results in ChEMBL document CHEMBL5370672, “Discovery of Orally Bioavailable Phthalazinone Analogues as an ENPP1 Inhibitor for STING-Mediated Cancer Immunotherapy” (J Med Chem, 2023).

Activity calls are given as the source filed them. No cut-off for these calls is given here.

In assay [1] the target is Stimulator of interferon genes protein (Homo sapiens) (UniProt Q86WV6). In words: Activation of STING-mediated immune response in human HCT-116 cells transfected with ISRE reporter assessed as increase in cGAMP-induced ISRE activation by measuring fold change at 25 to 100 uM preincubated with compound for 1 hrs followed by cGAMP addition and measured after 48 hrs by luciferase reporter gene assay. The note with it: filed as activator, dose 25-100 µM, time 49.0 hrs. It is filed as cell-based.

Assay [2] concerns the target T1, Ectonucleotide pyrophosphatase/phosphodiesterase family member 1 (Homo sapiens, UniProt P22413).
T1 sequence (P22413 whole entry): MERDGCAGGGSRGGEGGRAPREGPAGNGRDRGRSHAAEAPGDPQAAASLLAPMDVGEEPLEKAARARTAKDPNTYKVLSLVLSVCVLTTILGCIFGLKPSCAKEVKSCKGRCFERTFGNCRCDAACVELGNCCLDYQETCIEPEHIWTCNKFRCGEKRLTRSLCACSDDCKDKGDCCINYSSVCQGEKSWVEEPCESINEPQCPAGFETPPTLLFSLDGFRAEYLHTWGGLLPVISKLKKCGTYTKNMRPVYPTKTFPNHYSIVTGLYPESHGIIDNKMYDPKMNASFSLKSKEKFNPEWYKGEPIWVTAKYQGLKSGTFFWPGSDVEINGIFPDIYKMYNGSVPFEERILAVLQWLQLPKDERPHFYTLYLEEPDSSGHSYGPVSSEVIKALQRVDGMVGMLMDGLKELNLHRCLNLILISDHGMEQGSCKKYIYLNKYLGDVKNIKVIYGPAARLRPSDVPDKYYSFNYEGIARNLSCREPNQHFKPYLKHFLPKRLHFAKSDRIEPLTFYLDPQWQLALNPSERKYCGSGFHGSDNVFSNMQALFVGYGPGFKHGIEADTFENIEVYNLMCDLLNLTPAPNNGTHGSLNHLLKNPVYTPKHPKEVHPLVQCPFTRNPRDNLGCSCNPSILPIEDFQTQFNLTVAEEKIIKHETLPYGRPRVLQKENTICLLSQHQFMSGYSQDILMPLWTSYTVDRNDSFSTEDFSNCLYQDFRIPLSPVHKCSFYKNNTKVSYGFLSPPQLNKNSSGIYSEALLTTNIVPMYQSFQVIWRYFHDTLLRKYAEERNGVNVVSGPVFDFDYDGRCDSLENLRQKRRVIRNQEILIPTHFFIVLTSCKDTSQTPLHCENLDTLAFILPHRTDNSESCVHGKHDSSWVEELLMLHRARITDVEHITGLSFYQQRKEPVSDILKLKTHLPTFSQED
In words: Inhibition of recombinant human ENPP1 using cGAMP as substrate assessed as inhibition of cGAMP hydrolysis preincubated for 5 to 10 mins followed by substrate addition and measured after 90 mins by AMP-Glo reagent based luminescence plate reader analysis.

The target of assay [3] is Stimulator of interferon genes protein (Homo sapiens) (UniProt Q86WV6). In words: Activation of STING-mediated immune response in human HCT-116 cells transfected with ISRE reporter assessed as increase in cGAMP-induced ISRE activation at 25 to 100 uM preincubated with compound for 1 hrs followed by cGAMP addition and measured after 48 hrs by luciferase reporter gene assay. The class given is cell-based. Particulars: filed as activator, dose 25-100 µM, time 49.0 hrs.

Assay [4] has the same target. The assay can be described thus: Activation of STING-mediated immune response in human HCT-116 cells transfected with ISRE reporter assessed as increase in cGAMP-induced ISRE activation by measuring fold change at 100 uM preincubated with compound for 1 hrs followed by cGAMP addition and measured after 48 hrs by luciferase reporter gene assay. It is filed as cell-based. The note with it: filed as activator, time 49.0 hrs. (In general: In a reporter assay the amount or activity of a reporter protein is the signal.)

Chain of Stimulator of interferon genes protein (Homo sapiens) (Q86WV6 whole entry): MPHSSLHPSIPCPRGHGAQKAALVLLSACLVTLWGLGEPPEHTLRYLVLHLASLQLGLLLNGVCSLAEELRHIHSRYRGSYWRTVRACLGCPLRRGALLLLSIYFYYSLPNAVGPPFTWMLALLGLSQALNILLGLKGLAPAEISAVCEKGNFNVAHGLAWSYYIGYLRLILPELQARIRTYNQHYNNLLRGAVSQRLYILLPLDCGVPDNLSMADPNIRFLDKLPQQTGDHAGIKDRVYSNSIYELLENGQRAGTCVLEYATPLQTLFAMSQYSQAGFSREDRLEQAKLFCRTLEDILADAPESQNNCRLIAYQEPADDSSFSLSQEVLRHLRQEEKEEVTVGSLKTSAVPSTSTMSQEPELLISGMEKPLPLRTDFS

The IC50 is the concentration that gives 50% inhibition. Turning to `COc1cc2c(Cc3ccc(NS(N)(=O)=O)cc3)n[nH]c(=O)c2cc1OC`, the fold change (FC) in assay [1] was 2.49. Further, the IC50 in assay [2] was 69 nM.
For the compound `NS(=O)(=O)NCc1ccc(-c2nn(-c3ccccc3)c(=O)c3ccccc23)cc1`, the IC50 in assay [2] worked out at 1140 nM.
As for `COc1cc2c(Cc3ccc4c(c3)CCN4S(N)(=O)=O)nn(C)c(=O)c2cc1OC`, in assay [1], the fold change (FC) is 3.23. Also, in assay [2], the IC50 was 207 nM.
For the compound `NS(=O)(=O)Nc1ccc(Cc2n[nH]c(=O)c3ccccc23)cc1C(F)(F)F`, the IC50 in assay [2] came out at 2190 nM.
With `COc1ccc2c(=O)n(C)nc(-c3ccc(CNS(N)(=O)=O)cc3)c2c1`, in assay [2], the IC50 amounted to 1310 nM.
Same read-out and setting: with `NS(=O)(=O)NCC1CCN(c2n[nH]c(=O)c3ccccc23)CC1` the figure was 441 nM; with `Cn1nc(N2CCC(CNS(N)(=O)=O)CC2)c2ccccc2c1=O`, 2450 nM.
In the case of `Cn1nc(-c2ccc(CCS(N)(=O)=O)cc2)c2ccccc2c1=O`, the IC50 in assay [2] was 1810 nM.
Same read-out and setting: as for `NS(=O)(=O)Nc1ccc(Cc2n[nH]c(=O)c3ccccc23)c(C(F)(F)F)c1`, the figure is 1360 nM.
In the case of `NS(=O)(=O)Nc1ccc(Cc2n[nH]c(=O)c3ccccc23)cc1F`, the IC50 in assay [2] amounted to 298 nM. Besides, in assay [3], the outcome was Active.
For `COc1ccc2c(-c3ccc(CNS(N)(=O)=O)cc3)n[nH]c(=O)c2c1`, in assay [2], the IC50 was 590 nM.
The same measure, in the same setting: with `COc1cc2c(N3CCC(CNS(N)(=O)=O)CC3)nn(C)c(=O)c2cc1OC` the figure was 454 nM.
For `NS(=O)(=O)Nc1ccc(Cc2n[nH]c(=O)c3ccccc23)c(F)c1`, the IC50 in assay [2] is 273 nM. The outcome in assay [3] was Active.
For the compound `NS(=O)(=O)NCc1ccc(-c2n[nH]c(=O)c3ccccc23)cc1`, the fold change (FC) in assay [4] was determined as 1.71. Moreover, the half-inhibitory concentration (IC50) in assay [2] turned out to be 139 nM.
With `NS(=O)(=O)Nc1ccc(Cc2n[nH]c(=O)c3ccccc23)cc1`, the fold change (FC) in assay [1] turned out to be 1.85. Moreover, in assay [2], the half-inhibitory concentration (IC50) is 39 nM.
For `Cn1nc(-c2ccc(CNS(N)(=O)=O)cc2)c2ccccc2c1=O`, in assay [4], the fold change (FC) stood at 1.75. Further, in assay [2], the IC50 came to 286 nM.
As to `COc1cc2c(-c3ccc(CNS(N)(=O)=O)cc3)n[nH]c(=O)c2cc1OC`, the fold change (FC) in assay [4] stood at 1.07. Further, the IC50 in assay [2] was determined as 37 nM.
As to `COc1cc2c(Cc3ccc(N(C)S(N)(=O)=O)cc3)n[nH]c(=O)c2cc1OC`, the IC50 in assay [2] came out at 166 nM. Further, the outcome in assay [3] was Active.
Regarding `COc1cc2c(Cc3ccc(N(C)S(N)(=O)=O)cc3)nn(C)c(=O)c2cc1OC`, in assay [2], the IC50 was 247 nM. Besides, in assay [3], the outcome was Active.
As for `COc1cc2c(Cc3ccc4c(c3)CCN4S(N)(=O)=O)n[nH]c(=O)c2cc1OC`, the fold change (FC) in assay [1] was determined as 1.53. Besides, the IC50 in assay [2] is 210 nM.
Regarding `CN(c1ccc(Cc2n[nH]c(=O)c3ccccc23)cc1)S(N)(=O)=O`, the concentration for half-maximal inhibition (IC50) in assay [2] worked out at 1140 nM.
Consider `Cn1nc(-c2ccc3c(c2)CCN(S(N)(=O)=O)C3)c2ccccc2c1=O`, for which, in assay [2], the IC50 came to 2220 nM.
In the case of `COc1cc2c(Cc3ccc(NS(N)(=O)=O)cc3)nn(C)c(=O)c2cc1OC`, the IC50 in assay [2] is 118 nM. The outcome in assay [3] was Active.
On to `COc1cc2c(N3CCC(CNS(N)(=O)=O)CC3)n[nH]c(=O)c2cc1OC`, for which, in assay [2], the IC50 stood at 395 nM.
Regarding `NS(=O)(=O)NCc1ccc(-c2n[nH]c(=O)c3ccccc23)cc1C(F)(F)F`, the concentration for half-maximal inhibition (IC50) in assay [2] amounted to 377 nM.
With `NS(=O)(=O)NCc1ccc(-c2nn(Cc3ccccc3)c(=O)c3ccccc23)cc1`, the IC50 in assay [2] was found to be 1450 nM.
